Experimental data published in the supplement of paper PMC10307832.

Columns and labels:
Assay in all cases: relative viability (nuclei count vs DMSO), 5 days (fraction); higher = more cells survive
NCI-H358 = tested on: NCI-H358
In short: (§1)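 After 5 days of treatment, lung cancer cells in 1536-well plates were fixed and stained in a single step (final 0.05% Triton X-100, 1% formaldehyde, 1 ug/ml Hoechst) and their nuclei counted on 4× images. Treatment had been applied by pin tool the day after seeding as one drug alone or as a fixed anchor-drug dose with five library-drug doses (not always all listed) in √10 steps. Relative viability is the nuclei count of treated wells divided by that of vehicle wells, and values are medians of duplicate plates.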

HOP-62 = tested on: HOP-62
In short: as §1

NCI-H1975 = tested on: NCI-H1975
In short: as §1

A-427 = tested on: A-427
In short: as §1

SW 1573 = tested on: SW 1573
In short: as §1

NCI-H1915 = tested on: NCI-H1915
In short: as §1

PC-3 [JPC-3] = tested on: PC-3 [JPC-3]
In short: as §1

NCI-H647 = tested on: NCI-H647
In short: as §1

NCI-H2347 = tested on: NCI-H2347
In short: as §1

NCI-H1755 = tested on: NCI-H1755
In short: as §1

LOU-NH91 = tested on: LOU-NH91
In short: as §1

NCI-H1792 = tested on: NCI-H1792
In short: as §1

HCC-78 = tested on: HCC-78
In short: as §1

LXF-289 = tested on: LXF-289
In short: as §1

LC-2-ad = tested on: LC-2-ad
In short: as §1

SK-LU-1 = tested on: SK-LU-1
In short: as §1

NCI-H2228 = tested on: NCI-H2228
In short: as §1

NCI-H1734 = tested on: NCI-H1734
In short: as §1

NCI-H2126 = tested on: NCI-H2126
In short: as §1

RERF-LC-KJ = tested on: RERF-LC-KJ
In short: as §1

NCI-H460 = tested on: NCI-H460
In short: as §1

HCC-15 = tested on: HCC-15
In short: as §1

NCI-H2342 = tested on: NCI-H2342
In short: as §1

Structure (SMILES): NC(=O)Nc1cc(-c2cccc(F)c2)sc1C(=O)N[C@H]1CCCNC1 [AZD7762] + O=C(c1cc(Cc2n[nH]c(=O)c3ccccc23)ccc1F)N1CCN(C(=O)C2CC2)CC1 [Olaparib] (partner 8 µM)
- relative viability (NCI-H358; first compound 0.01 µM): 0.872
- relative viability (NCI-H358; first compound 0.03162 µM): 0.64
- relative viability (NCI-H358; first compound 0.1 µM): 0.715
- relative viability (NCI-H358; first compound 0.3162 µM): 0.408
- relative viability (NCI-H358; first compound 1 µM): 0.212
- relative viability (HOP-62; first compound 0.01 µM): 0.541
- relative viability (HOP-62; first compound 0.03162 µM): 0.239
- relative viability (HOP-62; first compound 0.1 µM): 0.313
- relative viability (HOP-62; first compound 0.3162 µM): 0.297
- relative viability (HOP-62; first compound 1 µM): 0.136
- relative viability (NCI-H1975; first compound 0.01 µM): 0.767
- relative viability (NCI-H1975; first compound 0.03162 µM): 0.682
- relative viability (NCI-H1975; first compound 0.1 µM): 0.638
- relative viability (NCI-H1975; first compound 0.3162 µM): 0.538
- relative viability (NCI-H1975; first compound 1 µM): 0.401
- relative viability (A-427; first compound 0.01 µM): 0.865
- relative viability (A-427; first compound 0.03162 µM): 0.767
- relative viability (A-427; first compound 0.1 µM): 0.78
- relative viability (A-427; first compound 0.3162 µM): 0.733
- relative viability (A-427; first compound 1 µM): 0.379
- relative viability (SW 1573; first compound 0.01 µM): 0.453
- relative viability (SW 1573; first compound 0.03162 µM): 0.526
- relative viability (SW 1573; first compound 0.1 µM): 0.403
- relative viability (SW 1573; first compound 0.3162 µM): 0.408
- relative viability (SW 1573; first compound 1 µM): 0.221
- relative viability (NCI-H1915; first compound 0.01 µM): 0.275
- relative viability (NCI-H1915; first compound 0.03162 µM): 0.308
- relative viability (NCI-H1915; first compound 0.1 µM): 0.272
- relative viability (NCI-H1915; first compound 0.3162 µM): 0.209
- relative viability (NCI-H1915; first compound 1 µM): 0.189
- relative viability (PC-3 [JPC-3]; first compound 0.01 µM): 1.19
- relative viability (PC-3 [JPC-3]; first compound 0.03162 µM): 1.06
- relative viability (PC-3 [JPC-3]; first compound 0.1 µM): 1.12
- relative viability (PC-3 [JPC-3]; first compound 0.3162 µM): 1.05
- relative viability (PC-3 [JPC-3]; first compound 1 µM): 0.634
- relative viability (NCI-H647; first compound 0.01 µM): 0.612
- relative viability (NCI-H647; first compound 0.03162 µM): 0.494
- relative viability (NCI-H647; first compound 0.1 µM): 0.238
- relative viability (NCI-H647; first compound 0.3162 µM): 0.0816
- relative viability (NCI-H647; first compound 1 µM): 0.0532
- relative viability (NCI-H2347; first compound 0.01 µM): 0.612
- relative viability (NCI-H2347; first compound 0.03162 µM): 0.656
- relative viability (NCI-H2347; first compound 0.1 µM): 0.78
- relative viability (NCI-H2347; first compound 0.3162 µM): 0.693
- relative viability (NCI-H2347; first compound 1 µM): 0.544
- relative viability (NCI-H1755; first compound 0.01 µM): 1.01
- relative viability (NCI-H1755; first compound 0.03162 µM): 0.92
- relative viability (NCI-H1755; first compound 0.1 µM): 0.957
- relative viability (NCI-H1755; first compound 0.3162 µM): 0.855
- relative viability (NCI-H1755; first compound 1 µM): 0.619
- relative viability (LOU-NH91; first compound 0.01 µM): 0.915
- relative viability (LOU-NH91; first compound 0.03162 µM): 0.914
- relative viability (LOU-NH91; first compound 0.1 µM): 0.867
- relative viability (LOU-NH91; first compound 0.3162 µM): 0.834
- relative viability (LOU-NH91; first compound 1 µM): 0.571
- relative viability (NCI-H1792; first compound 0.01 µM): 0.336
- relative viability (NCI-H1792; first compound 0.03162 µM): 0.421
- relative viability (NCI-H1792; first compound 0.1 µM): 0.364
- relative viability (NCI-H1792; first compound 0.3162 µM): 0.352
- relative viability (NCI-H1792; first compound 1 µM): 0.221
- relative viability (HCC-78; first compound 0.01 µM): 0.86
- relative viability (HCC-78; first compound 0.03162 µM): 1
- relative viability (HCC-78; first compound 0.1 µM): 0.775
- relative viability (HCC-78; first compound 0.3162 µM): 0.85
- relative viability (HCC-78; first compound 1 µM): 0.515
- relative viability (LXF-289; first compound 0.01 µM): 1.11
- relative viability (LXF-289; first compound 0.03162 µM): 1.18
- relative viability (LXF-289; first compound 0.1 µM): 1.21
- relative viability (LXF-289; first compound 0.3162 µM): 1.16
- relative viability (LXF-289; first compound 1 µM): 1.28
- relative viability (LC-2-ad; first compound 0.01 µM): 0.818
- relative viability (LC-2-ad; first compound 0.03162 µM): 0.772
- relative viability (LC-2-ad; first compound 0.1 µM): 0.781
- relative viability (LC-2-ad; first compound 0.3162 µM): 0.703
- relative viability (LC-2-ad; first compound 1 µM): 0.606
- relative viability (SK-LU-1; first compound 0.01 µM): 0.477
- relative viability (SK-LU-1; first compound 0.03162 µM): 0.389
- relative viability (SK-LU-1; first compound 0.1 µM): 0.306
- relative viability (SK-LU-1; first compound 0.3162 µM): 0.244
- relative viability (SK-LU-1; first compound 1 µM): 0.186
- relative viability (NCI-H2228; first compound 0.01 µM): 0.659
- relative viability (NCI-H2228; first compound 0.03162 µM): 0.778
- relative viability (NCI-H2228; first compound 0.1 µM): 0.637
- relative viability (NCI-H2228; first compound 0.3162 µM): 0.311
- relative viability (NCI-H2228; first compound 1 µM): 0.193
- relative viability (NCI-H1734; first compound 0.01 µM): 0.746
- relative viability (NCI-H1734; first compound 0.03162 µM): 0.663
- relative viability (NCI-H1734; first compound 0.1 µM): 0.72
- relative viability (NCI-H1734; first compound 0.3162 µM): 0.491
- relative viability (NCI-H1734; first compound 1 µM): 0.316
- relative viability (NCI-H2126; first compound 0.01 µM): 0.948
- relative viability (NCI-H2126; first compound 0.03162 µM): 0.982
- relative viability (NCI-H2126; first compound 0.1 µM): 0.966
- relative viability (NCI-H2126; first compound 0.3162 µM): 0.941
- relative viability (NCI-H2126; first compound 1 µM): 0.885
- relative viability (RERF-LC-KJ; first compound 0.01 µM): 0.928
- relative viability (RERF-LC-KJ; first compound 0.03162 µM): 0.922
- relative viability (RERF-LC-KJ; first compound 0.1 µM): 1.01
- relative viability (RERF-LC-KJ; first compound 0.3162 µM): 0.893
- relative viability (RERF-LC-KJ; first compound 1 µM): 0.65
- relative viability (NCI-H460; first compound 0.01 µM): 0.441
- relative viability (NCI-H460; first compound 0.03162 µM): 0.35
- relative viability (NCI-H460; first compound 0.1 µM): 0.261
- relative viability (NCI-H460; first compound 0.3162 µM): 0.132
- relative viability (NCI-H460; first compound 1 µM): 0.0653
- relative viability (HCC-15; first compound 0.01 µM): 0.824
- relative viability (HCC-15; first compound 0.03162 µM): 0.948
- relative viability (HCC-15; first compound 0.1 µM): 0.898
- relative viability (HCC-15; first compound 0.3162 µM): 1.04
- relative viability (HCC-15; first compound 1 µM): 0.983
- relative viability (NCI-H2342; first compound 0.01 µM): 0.449
- relative viability (NCI-H2342; first compound 0.03162 µM): 0.393
- relative viability (NCI-H2342; first compound 0.1 µM): 0.496
- relative viability (NCI-H2342; first compound 0.3162 µM): 0.457
- relative viability (NCI-H2342; first compound 1 µM): 0.515
